Laboratory results from publication PMC9635472, “Design, synthesis, and biological evaluation of novel ciprofloxacin derivatives as potential anticancer agents targeting topoisomerase II enzyme” (Journal of Enzyme Inhibition and Medicinal Chemistry, 2022).

Legend:
[1] = test system: Human bladder cancer (T-24) cell line; assay: MTT cell viability assay, T-24 cells; format: cell-based; settings: bladder cancer cell line T-24, treatment for 24 h (table title), means of three experiments, read-out: IC50 (μM* ± SD) T-24
Procedure: (§1) Human bladder cancer (T-24) and human prostate carcinoma (PC-3) cell lines were obtained from American Type Culture Collection (ATCC; Manassas, VA USA). Cells were maintained in Dulbecco’s modified Eagle medium with 10% foetal bovine serum at 37 °C and 5% CO2. All the operations were carried out under strict aseptic conditions. The culture medium was removed to a centrifuge tube containing 9.0 ml complete culture medium and spanned at approximately 125 × g for 5 to 7 min. The cell layer was rinsed with 0.25% (w/v) trypsin- […] EDTA solution by which all traces of serum-containing inhibitor were removed. Trypsin EDTA solution 2.0 to 3.0 ml was added to a flask and cells were monitored under an inverted microscope until the cell layer was dispersed (usually within 5–15 min). A complete growth medium was added (6.0–8.0 ml), and cells were aspirated by gentle pipetting. The cell pellet was suspended with the recommended complete medium and dispensed into a 75 cm^2 culture flask. The culture vessel containing the complete growth medium was placed in the incubator for 24 h to at 37 °C. The cells were treated with different concentrations (0.39, 1.60, 6.25, 25, and 100 μg/ml) of each of the test compounds or doxorubicin, […], then the plates were examined under the inverted microscope and finally the MTT assay was carried out.
(§2) Anti-cancer activity of the newly synthesised compounds was evaluated in vitro against both T-24 and PC-3 cell lines according to the MTT method. Cells were seeded into 96-well plates (flat bottom) at a density of 10 000 cells/well for 24 h. The vial of MTT to be used was reconstituted with 3 ml of medium or balanced salt solution without phenol red and serum. then, a reconstituted MTT vial was added in an amount equal to 10% of the culture medium volume. Cultures were incubated for 2–4 h depending on the cell type and maximum cell density and removed from the incubator and the formazan crystals were dissolved via the addition of an amount of MTT solubilisation solution (M-8910) equal to the original culture medium volume. ROBONIK P2000 spectrophotometer at a wavelength of 570 nm was used to measure the colour intensity spectrophotometrically. The survival curve of both T-24 and PC-3 cells was obtained by plotting the percentage of surviving cells against the drug after each compound. The IC50 value for each test compound and the reference drug doxorubicin was calculated.
(§3) In this study, all the newly synthesised CP derivatives were subjected to anticancer activity evaluation against bladder (T-24) and prostate cancer (PC-3) cell lines. The compounds were evaluated for their activity using 5 doses determinations (100 μg/ml, 25 μg/ml, 6.25 μg/ml, 1.60 μg/ml, and 0.39 μg/ml). Their half-maximal inhibitory concentration (IC50) values were measured. Doxorubicin was chosen as a reference anticancer drug[65].

[2] = test system: human prostate carcinoma (PC-3) cell line; assay: MTT cell viability assay, PC-3 cells; format: cell-based; settings: prostate cancer cell line PC-3, treatment for 24 h (table title), means of three experiments, read-out: IC50 (μM* ± SD) PC-3
Procedure: as §1, §2, §3

human DNA Topo II = target: T1, human DNA Topo II (Homo sapiens, UniProt P11388); assay: In vitro DNA Topo II-mediated relaxation assay (supercoiled pBR322); format: biochemical; settings: for IC50: means of three experiments, read-out: Topo II IC50 (µM*±SD); for inhibition at 0.1 µM / inhibition at 1 µM / inhibition at 10 µM / inhibition at 100 µM: recombinant Topo II relaxation; for inhibition at 0.1 µM: compound at 0.1 μM, read-out: Percentage of inhibition of Topo II, 0.1 μM; for inhibition at 1 µM: compound at 1 μM, read-out: Percentage of inhibition of Topo II, 1 μM; for inhibition at 10 µM: compound at 10 μM, read-out: Percentage of inhibition of Topo II, 10 μM; for inhibition at 100 µM: compound at 100 μM, read-out: Percentage of inhibition of Topo II, 100 μM
T1 construct: purchased USB Corp., USA
T1 sequence (P11388 whole entry): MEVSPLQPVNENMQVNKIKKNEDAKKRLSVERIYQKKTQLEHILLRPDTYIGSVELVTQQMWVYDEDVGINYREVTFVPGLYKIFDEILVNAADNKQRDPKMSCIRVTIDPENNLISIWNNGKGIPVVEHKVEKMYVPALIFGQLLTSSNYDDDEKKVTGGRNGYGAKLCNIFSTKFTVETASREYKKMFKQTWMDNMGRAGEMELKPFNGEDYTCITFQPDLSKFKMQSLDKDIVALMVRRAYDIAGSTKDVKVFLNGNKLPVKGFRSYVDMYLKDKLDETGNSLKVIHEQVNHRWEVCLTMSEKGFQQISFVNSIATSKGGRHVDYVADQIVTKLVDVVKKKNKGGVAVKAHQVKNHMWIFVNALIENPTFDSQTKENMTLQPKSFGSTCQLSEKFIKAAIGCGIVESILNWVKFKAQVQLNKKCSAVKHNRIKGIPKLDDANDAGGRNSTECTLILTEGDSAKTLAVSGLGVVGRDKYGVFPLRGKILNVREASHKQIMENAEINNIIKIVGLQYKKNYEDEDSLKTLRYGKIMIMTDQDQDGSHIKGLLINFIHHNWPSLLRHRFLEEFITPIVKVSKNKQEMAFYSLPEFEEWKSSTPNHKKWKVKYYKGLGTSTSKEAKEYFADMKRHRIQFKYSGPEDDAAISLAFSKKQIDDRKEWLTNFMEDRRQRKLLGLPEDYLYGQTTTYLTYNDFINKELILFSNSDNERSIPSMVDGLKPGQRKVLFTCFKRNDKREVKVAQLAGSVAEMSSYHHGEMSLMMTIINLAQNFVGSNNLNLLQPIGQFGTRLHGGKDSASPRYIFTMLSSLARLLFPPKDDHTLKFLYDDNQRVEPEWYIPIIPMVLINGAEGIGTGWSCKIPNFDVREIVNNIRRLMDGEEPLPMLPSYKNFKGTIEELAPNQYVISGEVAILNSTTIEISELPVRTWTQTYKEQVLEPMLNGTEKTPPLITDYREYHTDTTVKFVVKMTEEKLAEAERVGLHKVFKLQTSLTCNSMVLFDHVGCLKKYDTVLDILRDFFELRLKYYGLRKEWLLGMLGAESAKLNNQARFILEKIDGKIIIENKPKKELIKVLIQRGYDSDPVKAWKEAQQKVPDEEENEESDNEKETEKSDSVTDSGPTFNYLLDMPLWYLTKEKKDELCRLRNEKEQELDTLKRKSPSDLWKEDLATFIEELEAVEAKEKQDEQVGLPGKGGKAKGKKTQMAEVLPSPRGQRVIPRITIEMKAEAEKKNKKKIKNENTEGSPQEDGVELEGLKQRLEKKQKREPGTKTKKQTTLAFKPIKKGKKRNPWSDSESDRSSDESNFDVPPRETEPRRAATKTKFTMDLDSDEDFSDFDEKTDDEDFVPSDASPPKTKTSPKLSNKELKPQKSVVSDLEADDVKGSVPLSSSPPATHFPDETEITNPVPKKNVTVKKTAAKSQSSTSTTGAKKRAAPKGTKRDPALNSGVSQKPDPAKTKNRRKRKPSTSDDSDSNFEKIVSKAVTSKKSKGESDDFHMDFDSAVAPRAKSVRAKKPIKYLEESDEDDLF
Procedure: DNA Topo II inhibitory activities of the targeted compounds were measured as follows. A mixture of 100 ng of supercoiled pBR322 plasmid DNA (Fermentas, USA) and 2 units of human DNA Topo II (USB Corp., USA) was incubated with and without the prepared compounds in the assay buffer (10 µM Tris-HCl pH 7.9) containing 50 µM NaCl, 4 µM MgCl2, 1 µM EDTA, 1 µM ATP, and 15 mg/ml bovine serum albumin for 30 min at 37 °C. The reaction in a final volume of 10 µl was terminated by the addition of 4 µl of 6 µM EDTA. DNA samples were then electrophoresed on 1% agarose gel containing 0.5 µg/ml ethidium bromide in gel and buffer at high voltage (100–250 v) until the dye front has migrated about 4–6 cm down the gel. with a running buffer of TAE Tris-acetate– EDTA (TAE). Gels were stained for 15 min in water. DNA bands were visualised by transillumination with UV light and quantitated using AlphaI-maker TM (Alpha Innotech Corporation).
Well-known Topo II inhibitor doxorubicin was used as a positive control. The reaction products of Topo II relaxation assays were analysed by electrophoretic mobility and developed in ethidium bromide in the presence of UV light. The inhibitory activities were evaluated at 4 concentrations of 100, 10, 1, and 0.1 μM for all compounds as shown in (Figure 6). Topo II inhibitory activities of the tested compounds are summarised in (Table 2).

active caspase-3 = assay: Active caspase-3 ELISA in T-24 cells; format: cell-based, human; settings: 6 at 5.68 μM, 8a at 3.36 μM, means of three experiments
Procedure: The level of the apoptotic marker caspase-3 was measured using The Invitrogen Caspase-3 (active) Human ELISA Kit. The procedure of the used kit was done according to the manufacturer’s instructions.
Caspase-3 (a key effector enzyme) plays an important role in apoptosis since its activation leads to catalysing specific enzymes responsible for DNA fragmentation, which leads to cell death. Apoptosis induction in T-24 cells by compounds 6 and 8a was investigated via caspase 3, compared to doxorubicin as a reference drug.

SMILES	IC50 [1] [µM]	IC50 [2] [µM]	IC50 (human DNA Topo II) [µM]	inhibition at 0.1 µM (human DNA Topo II) [%]	inhibition at 1 µM (human DNA Topo II) [%]	inhibition at 10 µM (human DNA Topo II) [%]	inhibition at 100 µM (human DNA Topo II) [%]	melting point [°C]	Caspase-3 conc. (pg/ml* ± SD) (active caspase-3) [pg/mL]
O=C(CN1CCN(c2cc3c(cc2F)c(=O)c(C(=O)O)cn3C2CC2)CC1)NN=C1CCCCC1 [Compound 7a, 7-(4-(2-(2-Cyclohexylidenehydrazinyl)-2-oxoethyl)piperazin-1-yl)-1-cyclopropyl-6-fluoro-4-oxo-1,4-dihydroquinoline-3-carboxylic acid]	3.88 ± 0.21	9.35 ± 0.48	4.99 ± 0.27	13.7	27.9	55.9	83.6	256 to 258	
CC(=NNC(=O)CN1CCN(c2cc3c(cc2F)c(=O)c(C(=O)O)cn3C2CC2)CC1)c1ccc(Cl)cc1 [Compound 7b, 7-(4-(2-(2-(1-(4-Chlorophenyl)ethylidene)hydrazinyl)-2-oxoethyl)-piperazin-1-yl)-1-cyclopropyl-6-fluoro-4-oxo-1,4-dihydroquinoline-3-carboxylic acid]	11.5 ± 0.63	19 ± 0.96	3.34 ± 0.18	18.4	34	60.3	85.2	178 to 180	
O=C(CN1CCN(c2cc3c(cc2F)c(=O)c(C(=O)O)cn3C2CC2)CC1)NNC(=O)Nc1ccc(Cl)c(C(F)(F)F)c1 [Compound 9a, 7-(4-(2-(2-((4-Chloro-3-(trifluoromethyl)phenyl)carbamoyl)-hydrazinyl)-2-oxoethyl)piperazin-1-yl)-1-cyclopropyl-6-fluoro-4-oxo-1,4-dihydroquinoline-3-carboxylic acid]	4.35 ± 0.24	67.2 ± 3.42	2.58 ± 0.14	23.6	40.3	57	86.5	186 to 188	
COc1ccc(NC(=S)NNC(=O)CN2CCN(c3cc4c(cc3F)c(=O)c(C(=O)O)cn4C3CC3)CC2)cc1 [Compound 9c, 1-Cyclopropyl-6-fluoro-7-(4-(2-(2-((4-methoxyphenyl)carbamo-thioyl)hydrazinyl)-2-oxoethyl)piperazin-1-yl)-4-oxo-1,4-dihydroquinoline-3-carboxylic acid]	134 ± 7.23	4.85 ± 0.27						238 to 240	
O=C(CN1CCN(c2cc3c(cc2F)c(=O)c(C(=O)O)cn3C2CC2)CC1)NNCC(=O)c1ccccc1 [Compound 10a, 1-Cyclopropyl-6-fluoro-4-oxo-7-(4-(2-oxo-2-(2-(2-oxo-2-phenyl-ethyl)hydrazinyl)ethyl)piperazin-1-yl)-1,4-dihydroquinoline-3-carboxylic acid]	45.4 ± 2.45	74.3 ± 3.78						183 to 185	
O=C(CN1CCN(c2cc3c(cc2F)c(=O)c(C(=O)O)cn3C2CC2)CC1)NNCC(=O)c1cccc(Br)c1 [Compound 10b, 7-(4-(2-(2-(2-(3-Bromophenyl)-2-oxoethyl)hydrazinyl)-2-oxo-ethyl)piperazin-1-yl)-1-cyclopropyl-6-fluoro-4-oxo-1,4-dihydroquinoline-3-carboxylic acid]	17.2 ± 0.93	3.38 ± 0.18						210 to 215	
O=C(CN1CCN(c2cc3c(cc2F)c(=O)c(C(=O)O)cn3C2CC2)CC1)NNCC(=O)c1ccc([N+](=O)[O-])cc1 [Compound 10c, 1-Cyclopropyl-6-fluoro-7-(4-(2-(2-(2-(4-nitrophenyl)-2-oxoethyl)-hydrazinyl)-2-oxoethyl)piperazin-1-yl)-4-oxo-1,4-dihydroquinoline-3-carboxylic acid]	10.1 ± 0.55	3.25 ± 0.167	1.69 ± 0.09	24.8	37.7	72.6	90.2	221 to 223	
O=C(CN1CCN(c2cc3c(cc2F)c(=O)c(C(=O)O)cn3C2CC2)CC1)NN1C(=O)CCC1=O [Compound 11, 1-cyclopropyl-7-(4-(2-((2,5-dioxopyrrolidin-1-yl)amino)-2-oxoethyl)piperazin-1-yl)-6-fluoro-4-oxo-1,4-dihydroquinoline-3-carboxylic acid]	68.5 ± 3.69	82.2 ± 4.18						184 to 186	
O=C(CN1CCN(c2cc3c(cc2F)c(=O)c(C(=O)O)cn3C2CC2)CC1)NN1C(=O)c2ccccc2C1=O [Compound 12, 1-cyclopropyl-7-(4-(2-((1,3-dioxoisoindolin-2-yl)amino)-2-oxoethyl)piperazin-1-yl)-6-fluoro-4-oxo-1,4-dihydroquinoline-3-carboxylic acid]	47 ± 1.09	126 ± 6.39						190 to 192	
NC(=S)NNC(=O)CN1CCN(c2cc3c(cc2F)c(=O)c(C(=O)O)cn3C2CC2)CC1 [Compound 13, 7-(4-(2-(2-carbamothioylhydrazinyl)-2-oxoethyl)piperazin-1-yl)-1-cyclopropyl-6-fluoro-4-oxo-1,4-dihydroquinoline-3-carboxylic acid]	34.5 ± 1.86	30.5 ± 1.56						188 to 200	
O=C(CN1CCN(c2cc3c(cc2F)c(=O)c(C(=O)O)cn3C2CC2)CC1)NN=C1NC(=O)CS1 [Compound 14, 1-cyclopropyl-6-fluoro-4-oxo-7-(4-(2-oxo-2-(2-(4-oxothiazolidin-2-ylidene)hydrazinyl)ethyl)piperazin-1-yl)-1,4-dihydroquinoline-3-carboxylic acid]	19.5 ± 0.58	6.49 ± 0.24						240 to 242	
O=C(CN1CCN(c2cc3c(cc2F)c(=O)c(C(=O)O)cn3C2CC2)CC1)NN=c1[nH]c(-c2ccccc2)cs1 [Compound 15, 1-cyclopropyl-6-fluoro-4-oxo-7-(4-(2-oxo-2-(2-(4-phenylthiazol-2(3H)-ylidene)hydrazinyl)ethyl)piperazin-1-yl)-1,4-dihydroquinoline-3-carboxylic acid]	15.9 ± 0.87	7.54 ± 0.39						256 to 258	
COc1cccc2c1C(=O)c1c(O)c3c(c(O)c1C2=O)C[C@@](O)(C(=O)CO)C[C@@H]3O[C@H]1C[C@H](N)[C@H](O)[C@H](C)O1 [Doxorubicin, reference compound]	29.1 ± 1.56	23.1 ± 1.18	1.72 ± 0.08						598.8 ± 8.63
